How the values were obtained:
C2C12 muscle cells = assay: Analysis of glucose absorption (2-deoxyglucose) in differentiated C2C12 muscle cells; assay type: cell-based; conditions: test materials 10 μM, times relative to control group
Procedure, shortened: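 Uptake of 0.2 μCi 2-deoxyglucose over 20 min, counted radiometrically in lysed cells. Before tracer, compounds (10 μM) were applied for 30 min to C2C12 cells differentiated 6 days in 1% serum and equilibrated 3 h in 5 mM glucose KRB.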

AMPK = assay: Measurement of AMPK activity by Western blot in C2C12 cells; assay type: cell-based; set-up: key to AMPK activity (degree of phosphorylation of serine-79 and threonine-172): fold increase in threonine-172 phosphorylation; AMPK activity (degree of phosphorylation of serine-79): unit not given here; conditions: 10 μM for 50 minutes; for AMPK activity (degree of phosphorylation of serine-79 and threonine-172): no superscript: Western blot of serine-79 and threonine-172 phosphorylation; for AMPK activity (class: degree of phosphorylation of threonine-172): strong/mild/weak; for AMPK activity (degree of phosphorylation of serine-79): footnote a: Western blot of serine-79 phosphorylation
Procedure, shortened: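 Western blot readout of AMPK Thr-172 and ACC Ser-79 phosphorylation, normalised against ERK, served as the activity measure. Cells were C2C12 after differentiation, treated 50 minutes with 10 μM test material. Grading by Thr-172 increase: ≥3-fold strong, 1-3-fold mild, <1-fold weak.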

Structure (SMILES): COc1ccc(CNc2nc(C(OC)c3ccccc3)nc3ccccc23)c(OC)c1 (stereo not shown) [Compound 368, (2,4-Dimethoxybenzyl)-[2-(methoxyphenylmethyl)-quinazolino-4-yl]-amine]
- Glucose absorption (C2C12 muscle cells): 1.1
- AMPK activity (degree of phosphorylation of serine-79 and threonine-172) (AMPK): 5.9

Structure (SMILES): CCCCN(C)c1nc(-c2ccccc2)nc2ccccc12 [Compound 138, Butylmethyl-(2-phenylquinazolino-4-yl)-amine]
- Glucose absorption (C2C12 muscle cells): 2.4
- AMPK activity (degree of phosphorylation of serine-79 and threonine-172) (AMPK): 2.9
- AMPK activity (class: degree of phosphorylation of threonine-172) (AMPK): strong (“strong” means that the degree of phosphorylation of threonine-172 increased by 3 times or more)

Structure (SMILES): COc1cc(CNc2nc(-c3ccco3)nc3ccccc23)cc(OC)c1OC [Compound 345, (2-Furano-2-ylquinazolino-4-yl)-(3,4,5-trimethoxybenzyl)-amine]
- Glucose absorption (C2C12 muscle cells): 1.3
- AMPK activity (degree of phosphorylation of serine-79 and threonine-172) (AMPK): 1.1

Structure (SMILES): CC(Nc1nc(C(Cl)(Cl)Cl)nc2ccccc12)c1ccccc1 (stereo not shown) [Compound 5, (1-Phenylethyl)-(2-trichloromethylquinazolino-4-yl)-amine]
- Glucose absorption (C2C12 muscle cells): 0.9
- AMPK activity (degree of phosphorylation of serine-79) (AMPK): 4.7^a

Structure (SMILES): COc1ccc(OC)c(CNc2nc(N3CCCCC3)nc3ccccc23)c1 [Compound 296, (2,5-Dimethoxybenzyl)-(2-piperidino-1-ylquinazolino-4-yl)-amine]
- Glucose absorption (C2C12 muscle cells): 0.9
- AMPK activity (degree of phosphorylation of serine-79 and threonine-172) (AMPK): 1.0

Structure (SMILES): COc1cc(CNc2nc(C(C)C)nc3ccccc23)cc(OC)c1 [Compound 323, (3,5-Dimethoxybenzyl)-(2-isopropylquinazolino-4-yl)-amine]
- Glucose absorption (C2C12 muscle cells): 1.1
- AMPK activity (degree of phosphorylation of serine-79 and threonine-172) (AMPK): 1.2

Structure (SMILES): COc1cc(OC)c(CNc2nc(C(C)c3ccccc3)nc3ccccc23)c(OC)c1 (stereo not shown) [Compound 381, [2-(1-Phenylethyl)-quinazolino-4-yl]-(2,4,6-trimethoxybenzyl)-amine]
- Glucose absorption (C2C12 muscle cells): 1.2
- AMPK activity (degree of phosphorylation of serine-79 and threonine-172) (AMPK): 4.0

Structure (SMILES): Fc1ccc(F)c(CNc2nc(-c3ccccc3)nc3ccccc23)c1 [Compound 135, (2,5-Difluorobenzyl)-(2-phenylquinazolino-4-yl)-amine]
- Glucose absorption (C2C12 muscle cells): 2.6
- AMPK activity (degree of phosphorylation of serine-79 and threonine-172) (AMPK): 2.0
- AMPK activity (class: degree of phosphorylation of threonine-172) (AMPK): strong (“strong” means that the degree of phosphorylation of threonine-172 increased by 3 times or more)

Structure (SMILES): C=CCNc1ncnc2cc(OCC)c(OCC)cc12 [Compound 16, Allyl-(6,7-diethoxyquinazolino-4-yl)-amine]
- Glucose absorption (C2C12 muscle cells): 1.3
- AMPK activity (degree of phosphorylation of serine-79) (AMPK): 3.1^a

Structure (SMILES): COc1ccc(OC)c(CNc2ncnc3ccccc23)c1 [Compound 413, (2,5-Dimethoxybenzyl)-quinazolino-4-ylamine]
- Glucose absorption (C2C12 muscle cells): 1.2
- AMPK activity (degree of phosphorylation of serine-79 and threonine-172) (AMPK): 1.7

Structure (SMILES): COc1cccc(CNc2nc(C)nc3ccccc23)c1 [Compound 164, (3-Methoxybenzyl)-(2-methylquinazolino-4-yl)-amine]
- Glucose absorption (C2C12 muscle cells): 3.4
- AMPK activity (degree of phosphorylation of serine-79 and threonine-172) (AMPK): 1.6
- AMPK activity (class: degree of phosphorylation of threonine-172) (AMPK): mild (“mild” means that the degree of phosphorylation of threonine-172 increased by 1 to 3 times)

Structure (SMILES): CCSc1nc(NC(C)CC)c2ccccc2n1 (stereo not shown) [Compound 20, sec-Butyl-(2-ethylsulfanylquinazolino-4-yl)-amine]
- Glucose absorption (C2C12 muscle cells): 1.9
- AMPK activity (class: degree of phosphorylation of threonine-172) (AMPK): weak (“weak” means that the degree of phosphorylation of threonine-172 increased by less than 1 time)

Structure (SMILES): COc1ccccc1CNc1nc(C(C)C)nc2ccccc12 [Compound 321, (2-Isopropylquinazolino-4-yl)-(2-methoxybenzyl)-amine]
- Glucose absorption (C2C12 muscle cells): 1.2
- AMPK activity (degree of phosphorylation of serine-79 and threonine-172) (AMPK): 0.9

Structure (SMILES): c1ccc(-c2nc(NCc3ccccn3)c3ccccc3n2)cc1 [Compound 142, (2-Phenylquinazolino-4-yl)-pyridino-2-ylmethylamine]
- Glucose absorption (C2C12 muscle cells): 1.4
- AMPK activity (degree of phosphorylation of serine-79 and threonine-172) (AMPK): 1.4
- AMPK activity (class: degree of phosphorylation of threonine-172) (AMPK): mild (“mild” means that the degree of phosphorylation of threonine-172 increased by 1 to 3 times)

Structure (SMILES): Fc1ccc(CNc2nc(-c3ccccc3)nc3ccccc23)c(F)c1 [Compound 134, (2,4-Difluorobenzyl)-(2-phenylquinazolino-4-yl)-amine]
- Glucose absorption (C2C12 muscle cells): 2.6
- AMPK activity (degree of phosphorylation of serine-79 and threonine-172) (AMPK): 1.8
- AMPK activity (class: degree of phosphorylation of threonine-172) (AMPK): strong (“strong” means that the degree of phosphorylation of threonine-172 increased by 3 times or more)

Structure (SMILES): COc1cc(CNc2nc(Cc3ccccc3)nc3ccccc23)cc(OC)c1 [Compound 330, (2-Benzylquinazolino-4-yl)-(3,5-dimethoxybenzyl)-amine]
- Glucose absorption (C2C12 muscle cells): 1.2
- AMPK activity (degree of phosphorylation of serine-79 and threonine-172) (AMPK): 1.7
